Test results reported in US6737383B1, “Herbicidal oxadiazolidines” (priority 1999, dated 2004).

Assays:
[1] = test system: bedstraw; assay: Test B pre/postemergence bedstraw; format: in vivo, Galium aparine
Method in brief: (§1)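 Response is a visual 0-to-10 score relative to untreated plants, where 0 means no effect and 10 means complete control, taken twelve to sixteen days after application. Treatments went onto soil at planting and onto foliage of 1- to 4-leaf plants, using a surfactant-containing non-phytotoxic solvent.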

[2] = test system: blackgrass; assay: Test B pre/postemergence blackgrass; format: in vivo, Alopecurus myosuroides
Method in brief: as §1

[3] = test system: surinam grass; assay: Test B pre/postemergence surinam grass; format: in vivo, Brachiaria decumbens
Method in brief: as §1

[4] = test system: cocklebur; assay: Test B pre/postemergence cocklebur; format: in vivo, Xanthium strumarium
Method in brief: as §1

[5] = test system: corn; assay: Test B pre/postemergence corn; format: in vivo, Zea mays
Method in brief: as §1

[6] = test system: morningglory; assay: Test B pre/postemergence morningglory; format: in vivo, Ipomoea hederacea
Method in brief: as §1

[7] = test system: pigweed; assay: Test B pre/postemergence pigweed; format: in vivo, Amaranthus retroflexus
Method in brief: as §1

[8] = test system: rape; assay: Test B pre/postemergence rape; format: in vivo, Brassica napus
Method in brief: as §1

[9] = test system: velvetleaf; assay: Test B pre/postemergence velvetleaf; format: in vivo, Abutilon theophrasti
Method in brief: as §1

[10] = test system: wheat; assay: Test B pre/postemergence wheat; format: in vivo, Triticum aestivum
Method in brief: as §1

[11] = test system: wild oat; assay: Test B pre/postemergence wild oat; format: in vivo, Avena fatua
Method in brief: as §1

[12] = test system: purple nutsedge; assay: Test B pre/postemergence purple nutsedge; format: in vivo, Cyperus rotundus
Method in brief: as §1

[13] = test system: rice; assay: Test B flood test rice; format: in vivo, Oryza sativa
Method in brief: (§2)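 Each value is a visual injury score relative to controls, with 10 meaning complete control and 0 no effect. Evaluation took place twelve to sixteen days after the 2-leaf-stage plants were treated and kept in the greenhouse.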

[14] = test system: smallflower flatsedge; assay: Test B flood test smallflower flatsedge; format: in vivo, Cyperus difformis
Method in brief: as §2

[15] = test system: duck salad; assay: Test B flood test duck salad; format: in vivo, Heteranthera limosa
Method in brief: as §2

[16] = test system: bamyardgrass; assay: Test B flood test barnyardgrass; format: in vivo, Echinochloa crus-galli
Method in brief: as §2

[17] = Postemergence, Rate 125 g/ha, scale of 0 to 10 where 0 is no effect and 10 is complete control
[18] = Postemergence, Rate 1000 g/ha, scale 0 to 10 (0 no effect, 10 complete control)
[19] = Preemergence, Rate 125 g/ha, 0 is no effect, 10 is complete control
[20] = Preemergence, Rate 250 g/ha, scale 0 to 10, 0 is no effect, 10 is complete control
[21] = Preemergence, Rate 500 g/ha, scale 0 to 10 (0 no effect, 10 complete control)
[22] = Rate 250 g/ha, Postemergence, scale 0 to 10, 0 is no effect, 10 is complete control
[23] = Rate 500 g/ha, Postemergence, scale 0 to 10
[24] = Rate 1000 g/ha, Preemergence, scale 0 to 10 (0 no effect, 10 complete control)
[25] = Postemergence (flood test species), Rate 125 g/ha, scale of 0 to 10 where 0 is no effect and 10 is complete control
[26] = Rate 250 g/ha, Postemergence (flood test), scale 0 to 10, 0 is no effect, 10 is complete control
[27] = Rate 500 g/ha, listed under Postemergence (flood test species), scale 0 to 10

SMILES: Cc1ccccc1-n1c(=O)on(C(=O)N(c2c(F)cccc2F)C(C)C)c1=O [Compound 176]
- Bedstraw plant response rating [1, 17]: 0
- Bedstraw plant response rating [1, 18]: 9
- Bedstraw plant response rating (0 to 10 scale) [1, 19]: 0
- Bedstraw plant response rating [1, 20]: 0
- Bedstraw plant response rating [1, 21]: 0
- Plant response rating, Bedstraw [1, 22]: 2
- Bedstraw plant response rating [1, 23]: 8
- Plant response rating, Bedstraw [1, 24]: 6
- Blackgrass plant response rating [2, 17]: 0
- Blackgrass plant response rating [2, 18]: 7
- Blackgrass plant response rating (0 to 10 scale) [2, 19]: 0
- Blackgrass plant response rating [2, 20]: 2
- Blackgrass plant response rating [2, 21]: 3
- Plant response rating, Blackgrass [2, 22]: 0
- Blackgrass plant response rating [2, 23]: 3
- Plant response rating, Blackgrass [2, 24]: 7
- B. signalgrass plant response rating [3, 17]: 0
- B. signalgrass plant response rating [3, 18]: 2
- B. signalgrass plant response rating (0 to 10 scale) [3, 19]: 0
- B. signalgrass plant response rating [3, 20]: 0
- B. signalgrass plant response rating [3, 21]: 0
- Plant response rating, B. signalgrass [3, 22]: 0
- B. signalgrass plant response rating ([3]; Rate 500 g/ha, Postemergence, scale 0 to 10, 0 no effect, 10 complete control): 0
- Plant response rating, B. signalgrass [3, 24]: 3
- Cocklebur plant response rating [4, 17]: 2
- Cocklebur plant response rating [4, 18]: 6
- Cocklebur plant response rating (0 to 10 scale) [4, 19]: 0
- Cocklebur plant response rating [4, 20]: 0
- Cocklebur plant response rating [4, 21]: 0
- Plant response rating, Cocklebur [4, 22]: 2
- Cocklebur plant response rating [4, 23]: 3
- Plant response rating, Cocklebur [4, 24]: 0
- Corn plant response rating [5, 17]: 0
- Corn plant response rating [5, 18]: 0
- Corn plant response rating (0 to 10 scale) [5, 19]: 0
- Corn plant response rating [5, 20]: 0
- Corn plant response rating [5, 21]: 0
- Plant response rating, Corn [5, 22]: 0
- Corn plant response rating [5, 23]: 0
- Plant response rating, Corn [5, 24]: 2
- Morningglory plant response rating [6, 17]: 2
- Morningglory plant response rating [6, 18]: 7
- Morningglory plant response rating (0 to 10 scale) [6, 19]: 0
- Morningglory plant response rating [6, 20]: 0
- Morningglory plant response rating [6, 21]: 0
- Plant response rating, Morningglory [6, 22]: 2
- Morningglory plant response rating [6, 23]: 3
- Plant response rating, Morningglory [6, 24]: 0
- Redroot pigweed plant response rating [7, 17]: 0
- Redroot pigweed plant response rating [7, 18]: 1
- Redroot pigweed plant response rating (0 to 10 scale) [7, 19]: 0
- Redroot pigweed plant response rating [7, 20]: 0
- Redroot pigweed plant response rating [7, 21]: 0
- Plant response rating, Redroot pigweed [7, 22]: 0
- Redroot pigweed plant response rating [7, 23]: 0
- Plant response rating, Redroot pigweed [7, 24]: 0
- Rape plant response rating [8, 17]: 0
- Rape plant response rating [8, 18]: 0
- Rape plant response rating (0 to 10 scale) [8, 19]: 0
- Rape plant response rating [8, 20]: 0
- Rape plant response rating [8, 21]: 0
- Plant response rating, Rape [8, 22]: 0
- Rape plant response rating [8, 23]: 0
- Plant response rating, Rape [8, 24]: 3
- Velvetleaf plant response rating [9, 18]: 3
- Velvetleaf plant response rating (0 to 10 scale) [9, 19]: 0
- Velvetleaf plant response rating [9, 20]: 0
- Velvetleaf plant response rating [9, 21]: 2
- Plant response rating, Velvetleaf [9, 22]: 2
- Velvetleaf plant response rating [9, 23]: 2
- Plant response rating, Velvetleaf [9, 24]: 5
- Wheat plant response rating [10, 18]: 4
- Wheat plant response rating (0 to 10 scale) [10, 19]: 0
- Wheat plant response rating [10, 20]: 0
- Wheat plant response rating [10, 21]: 0
- Plant response rating, Wheat [10, 22]: 0
- Wheat plant response rating [10, 23]: 2
- Plant response rating, Wheat [10, 24]: 4
- Wild oats plant response rating [11, 18]: 4
- Wild oats plant response rating (0 to 10 scale) [11, 19]: 0
- Wild oats plant response rating [11, 20]: 3
- Wild oats plant response rating [11, 21]: 5
- Plant response rating, Wild oats [11, 22]: 0
- Wild oats plant response rating [11, 23]: 0
- Plant response rating, Wild oats [11, 24]: 5
- Nutsedge plant response rating [12, 17]: 0
- Nutsedge plant response rating (0 to 10 scale) [12, 19]: 0
- Nutsedge plant response rating [12, 20]: 0
- Nutsedge plant response rating [12, 21]: 0
- Plant response rating, Nutsedge [12, 22]: 0
- Nutsedge plant response rating [12, 23]: 0
- Plant response rating, Nutsedge [12, 24]: 10
- Rice plant response rating [13, 25]: 0
- Rice plant response rating [13, 18]: 0
- Plant response rating, Rice [13, 26]: 0
- Rice plant response rating [13, 27]: 0
- S. Flatsedge plant response rating [14, 25]: 0
- S. Flatsedge plant response rating [14, 18]: 0
- Plant response rating, S. Flatsedge [14, 26]: 0
- S. Flatsedge plant response rating [14, 27]: 0
- Ducksalad plant response rating [15, 25]: 0
- Ducksalad plant response rating [15, 18]: 0
- Plant response rating, Ducksalad [15, 26]: 0
- Ducksalad plant response rating [15, 27]: 0
- Barnyardgrass plant response rating [16, 25]: 0
- Barnyardgrass plant response rating [16, 18]: 0
- Plant response rating, Barnyardgrass [16, 26]: 0
- Barnyardgrass plant response rating [16, 27]: 0
